Measured values published in the supplement of paper PMC12137928.
Counter-ions that a name gives are not always drawn.

Tested on: HCT116
Conditions: 72 h
How it was run: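 Four-parameter Hill fits gave IC50 and maximal efficacy. The data were CellTiter-Glo luminescence readings in HCT116 cells, normalized so that vehicle was 0% and positive control was -100%, with pattern correction afterwards.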

Row | IC50 cell viability (ICRF193 0 nM) | IC50 cell viability (ICRF193 200 nM) | Structure (SMILES)
1 | > 45.8 µM | > 45.8 µM | OCCN1C[C@H](O)[C@@H](O)[C@H](O)[C@H]1CO [Miglitol]
2 | > 45.8 µM | > 45.8 µM | CC(C)(C)NC[C@H](O)COc1nsnc1N1CCOCC1 [(S)-Timolol]
3 | > 45.8 µM | > 45.8 µM | Cc1ncc(C[n+]2csc(CCO)c2C)c(N)n1 [Thiamine hydrochloride]
4 | > 45.8 µM | > 45.8 µM | CCOC(=O)[C@H](CCc1ccccc1)N[C@@H](C)C(=O)N1Cc2cc(OC)c(OC)cc2C[C@H]1C(=O)O [Moexipril hydrochloride]
5 | > 45.8 µM | > 45.8 µM | CC(C)Nc1cccnc1N1CCN(C(=O)c2cc3cc(NS(C)(=O)=O)ccc3[nH]2)CC1 [Delavirdine]
6 | > 45.8 µM | > 45.8 µM | CC(=O)Nc1c(I)c(C(=O)N[C@H]2C(O)O[C@H](CO)[C@@H](O)[C@@H]2O)c(I)c(N(C)C(C)=O)c1I (some centres not stated) [Metrizamide]
7 | > 45.8 µM | > 45.8 µM | CO/N=C(\C(=O)N[C@@H]1C(=O)N2C(C(=O)O)=C(CSc3cnns3)CS[C@H]12)c1csc(N)n1 [Cefuzonam hydrochloride]
8 | > 45.8 µM | > 45.8 µM | CCC(=O)Oc1ccc2c(c1)CCC1C2CCC2(C)C(OC(=O)CC)CCC12 (stereo not drawn) [17-BETA-ESTRADIOL 3,17-DIPROPIONATE]
9 | > 45.8 µM | > 45.8 µM | CC(=O)OCC(CCn1cnc2cnc(N)nc21)COC(C)=O [Famciclovir]
10 | > 45.8 µM | > 45.8 µM | COc1c2occc2cc2ccc(=O)oc12 [Methoxsalen]
11 | > 45.8 µM | > 45.8 µM | CC(C)C[C@H]1[C@@H](c2ccccc2)OC(=O)N1CCCN1CCCCCC1 [Ipenoxazone hydrochloride]
12 | > 45.8 µM | > 45.8 µM | O=C(O)c1ccccc1Nc1cccc(C(F)(F)F)c1 [Flufenamic acid]
13 | > 45.8 µM | > 45.8 µM | COc1ccc2cccc(CCNC(C)=O)c2c1 [Agomelatine]
14 | > 45.8 µM | > 45.8 µM | Cc1c(C)c2c(c(C)c1O)CCC(C)(COc1ccc(CC3SC(=O)NC3=O)cc1)O2 (configuration not stated) [Troglitazone]
15 | > 45.8 µM | > 45.8 µM | O=C(Cn1cnnn1)N[C@@H]1C(=O)N2C(C(=O)O)=C(CSc3nncs3)CS[C@H]12 [Ceftezole sodium]
16 | > 45.8 µM | > 45.8 µM | CCOC(=O)[C@H](CCc1ccccc1)N[C@@H](C)C(=O)N1[C@H](C(=O)O)C[C@@H]2CCC[C@@H]21 [Ramipril]
17 | > 45.8 µM | > 45.8 µM | COc1ccc(C(=O)CC(=O)c2ccc(C(C)(C)C)cc2)cc1 [Avobenzone]
18 | > 45.8 µM | > 45.8 µM | Cc1nc2n(c(=O)c1CCN1CCC(c3noc4cc(F)ccc34)CC1)CCCC2O (configuration not stated) [Paliperidone]
19 | > 45.8 µM | > 45.8 µM | COC[C@H]1C[C@@H](c2nc(-c3ccc4c(c3)COc3cc5c(ccc6nc([C@@H]7CC[C@H](C)N7C(=O)[C@@H](NC(=O)OC)C(C)C)[nH]c65)cc3-4)c[nH]2)N(C(=O)[C@H](NC(=O)OC)c2ccccc2)C1 [Velpatasvir]
20 | > 45.8 µM | > 45.8 µM | N#Cc1cc(NC(=O)C(=O)O)c(Cl)c(NC(=O)C(=O)O)c1 [Lodoxamide]
21 | > 45.8 µM | > 45.8 µM | C[C@H](NCc1ccc(OCc2cccc(F)c2)cc1)C(N)=O [Safinamide]
22 | > 45.8 µM | > 45.8 µM | COC(=O)[C@@H]1CC2=CC(=O)CC[C@]2(C)[C@@]23O[C@@H]2C[C@@]2(C)[C@@H](CC[C@@]24CCC(=O)O4)[C@H]13 [Eplerenone]

The next lines start with the compound.

Row | Structure (SMILES) | IC50 cell viability (ICRF193 0 nM) | IC50 cell viability (ICRF193 200 nM)
23 | CC[C@H]1C[C@H]2[C@@H]3CCC4=CC(=O)CC[C@@H]4[C@H]3CC[C@]2(C)[C@H]1O [Oxendolone] | > 45.8 µM | > 45.8 µM
24 | O=C(O)CCC(=O)O [Butanedioic acid] | > 45.8 µM | > 45.8 µM
25 | Cn1c(=O)c2[nH]cnc2n(C)c1=O [Theophyllamine] | > 45.8 µM | > 45.8 µM
26 | CC(C)NCC(O)COc1ccc(COCCOC(C)C)cc1 (configuration not stated) [Bisoprolol fumarate] | > 45.8 µM | > 45.8 µM
27 | NS(=O)(=O)c1cc2c(cc1Cl)NC(C(Cl)Cl)NS2(=O)=O (configuration not stated) [Trichlormethiazide] | > 45.8 µM | > 45.8 µM
28 | Cc1cc(O)ccc1C(C)(C)C [P-T-BUTYL-M-CRESOL] | > 45.8 µM | > 45.8 µM
29 | C=CC[C@]1(O)CC[C@H]2[C@@H]3CCC4=CCCC[C@@H]4[C@H]3CC[C@@]21C [Allylestrenol] | > 45.8 µM | > 45.8 µM
30 | O=C(O[C@H]1C[N+]2(CCCOc3ccccc3)CCC1CC2)C(O)(c1cccs1)c1cccs1 [Aclidinium (Bromide)] | > 45.8 µM | > 45.8 µM
31 | O=C1OC(c2ccc(O)cc2)(c2ccc(O)cc2)c2ccccc21 [Phenolphthalein] | > 45.8 µM | > 45.8 µM
32 | O=S(=O)(O)CC(S)CS (configuration not stated) [Sodium 2,3-dimercaptopropanesulfonate monohydrate] | > 45.8 µM | > 45.8 µM
33 | C[C@@H]1NC(=O)[C@@H]2CCCN2C(=O)[C@H](CC(N)=O)NC(=O)[C@@H]2CSSC[C@H](N)C(=O)N[C@H]3CSSC[C@H](NC1=O)C(=O)N[C@@H]([C@@H](C)O)C(=O)NCC(=O)N[C@H](C(=O)N[C@@H](Cc1ccc(O)cc1)C(=O)O)CSSC[C@H](NC(=O)[C@H](Cc1ccc(O)cc1)NC(=O)[C@H](CCC(=O)O)NC3=O)C(=O)N2 [LINACLOTIDE (1 mg/ml)] | > 45.8 µM | > 45.8 µM
34 | C(=C\c1ccncc1)/c1ccccc1 [4-Styrylpyridine] | > 45.8 µM | > 45.8 µM
35 | CCCCCCCCCC(=O)O[C@H]1CC[C@H]2[C@@H]3CCC4=CC(=O)CC[C@]4(C)[C@H]3CC[C@]12C [Testosterone decanoate] | > 45.8 µM | > 45.8 µM
36 | O=c1oc2c(O)c(O)cc3c(=O)oc4c(O)c(O)cc1c4c23 [Ellagic acid] | > 45.8 µM | > 45.8 µM
37 | OCCc1ccccc1 [2-Phenylethanol] | > 45.8 µM | > 45.8 µM
38 | CCC(=O)C(CCN(C)C)(c1ccccc1)c1ccccc1 [Normethadone] | > 45.8 µM | > 45.8 µM
39 | CC(C)CCCC(C)CCCC(C)CCCCC(C)CCCC(C)CCCC(C)C (configuration not stated) [Squalane] | > 45.8 µM | > 45.8 µM
40 | O=P(O)(O)C(Cl)(Cl)P(=O)(O)O [Clodronate] | > 45.8 µM | > 45.8 µM
41 | CCN(CC)CCOC(=O)c1ccc(N)cc1Cl [Chloroprocaine HCl] | > 45.8 µM | > 45.8 µM
42 | COCCCC/C(=N\OCCN)c1ccc(C(F)(F)F)cc1 [Fluvoxamine] | > 45.8 µM | > 45.8 µM

Row | Structure (SMILES) | IC50 cell viability (ICRF193 0 nM) | IC50 cell viability (ICRF193 200 nM)
43 | C[N+]12CCCCC1CCC(=C(c1cccs1)c1cccs1)C2 (configuration not stated) [Tiquizium bromide] | > 45.8 µM | > 45.8 µM
44 | CC(=O)O[C@H]1CC[C@H]2[C@@H]3CC[C@H]4CC(=O)C=C(C)[C@]4(C)[C@H]3CC[C@]12C [Methenolone (acetate)] | > 45.8 µM | > 45.8 µM
45 | CC(C)(Oc1ccc(Cl)cc1)C(=O)OCCCOC(=O)C(C)(C)Oc1ccc(Cl)cc1 [Cholesolvin] | > 45.8 µM | > 45.8 µM
46 | CC(C)NC(C)Cc1ccc(I)cc1 (configuration not stated) [Iofetamine hydrochloride] | > 45.8 µM | > 45.8 µM
47 | CS(=O)(=O)c1ccc([C@@H](O)[C@@H](CF)NC(=O)C(Cl)Cl)cc1 [Florfenicol] | > 45.8 µM | > 45.8 µM
48 | CN(C)CC(c1ccc(O)cc1)C1(O)CCCCC1 (configuration not stated) [DESVENLAFAXINE SUCCINATE] | > 45.8 µM | > 45.8 µM
49 | C=C1/C(=C\C=C2/CCC[C@]3(C)[C@@H]([C@H](C)CCCC(C)(C)O)CC[C@@H]23)C[C@@H](O)C[C@@H]1O [Calcitriol] | > 45.8 µM | > 45.8 µM
50 | CC(C)[N+]1(C)[C@@H]2CC[C@H]1C[C@@H](OC(=O)C(CO)c1ccccc1)C2 (some centres not stated) [Ipratropium bromide] | > 45.8 µM | > 45.8 µM
51 | CC(C)NCC(O)COc1cccc2[nH]ccc12 (configuration not stated) [Pindolol] | > 45.8 µM | > 45.8 µM
52 | CC(C)(CO)[C@@H](O)C(=O)NCCCC(=O)O [Calcium hopantenate] | > 45.8 µM | > 45.8 µM
53 | O=C(O)COc1nn(Cc2ccccc2)c2ccccc12 [Bendazac sodium] | > 45.8 µM | > 45.8 µM
54 | COc1cccc(N(C)C(=S)Oc2ccc3c(c2)CCCC3)n1 [Liranaftate] | > 45.8 µM | > 45.8 µM
55 | Cc1ccc(O)c([C@H](CCN(C(C)C)C(C)C)c2ccccc2)c1 [Tolterodine] | > 45.8 µM | > 45.8 µM
56 | Cc1cc(O)ccc1Cl [4-Chloro-3-methylphenol] | > 45.8 µM | > 45.8 µM
57 | Cc1cc(CC(C)C[Si](C)(O[Si](C)(C)C)O[Si](C)(C)C)c(O)c(-n2nc3ccccc3n2)c1 (configuration not stated) [DROMETRIZOLE TRISILOXANE] | > 45.8 µM | > 45.8 µM
58 | CCC[C@@H]1CC(=O)N([C@@H](CC)C(N)=O)C1 [Brivaracetam] | > 45.8 µM | > 45.8 µM
59 | CC1(C)C(C=C(Cl)Cl)C1C(=O)OCc1cccc(Oc2ccccc2)c1 (configuration not stated) [PERMETHRIN] | > 45.8 µM | > 45.8 µM
60 | CC1=C(/C=C/C(C)=C/C=C/C(C)=C/C=C/C=C(C)/C=C/C=C(C)/C=C/C2=C(C)CCCC2(C)C)C(C)(C)CCC1 [beta-Carotene] | > 45.8 µM | > 45.8 µM
61 | CCCN(CCc1cccs1)[C@H]1CCc2c(O)cccc2C1 [Rotigotine] | > 45.8 µM | > 45.8 µM
